Test results from US20240208944A1, “Quinazoline Derivatives, Pharmaceutical Compositions, and Therapeutic Uses Related to Nox Inhibition” (Emory University, priority 2021, published 2024).
Where a name gives a salt, the structure may show the parent alone. Read-outs that look alike come from different tables or passages of the source.

Experiments:
NOX-2 = NOX-2 (Homo sapiens (Human), UniProt P04839); experiment: NOX-2 inhibition (Nox assays); format: biochemical
NOX-4 = NOX-4 (Homo sapiens (Human), UniProt Q9NPH5); experiment: NOX-4 inhibition (Nox assays); format: biochemical
Cytotoxicity CC50 = format: cell-based
[1] = Aqueous (water) solubility; format: physicochemical; details: for solubility: water
Experimental: (§1) The aqueous solubility, liver microsomal stability, and in vivo pharmacokinetics were determined. […] These derivatives have requisite stability in mouse liver microsomes.

[2] = Mouse liver microsomal stability; format: in vitro ADME; details: mouse liver microsomes; read-out: MLM T1/2
Experimental: as §1

[3] = In vivo pharmacokinetics in Sprague Dawley rats; design: species or system rat; details: for half-life: male SD rats
Excerpt: The compound has a brain-to-plasma ratio >10.
In Vivo Pharmacokinetics for Compound TG15-132S in Sprague Dawley (SD) Rats.

THP1 monocytic cells = experiment: PMA-induced mRNA levels of NOX2, its subunits and inflammatory markers in THP1 cells; format: cell-based; details: THP1 cells treated with PMA 100 ng/ml
Excerpt: These markers are suppressed by the treatment of NOX2 inhibitor TG15-132.HCI.

Chain of NOX-2 (P04839 2-570, species assumed): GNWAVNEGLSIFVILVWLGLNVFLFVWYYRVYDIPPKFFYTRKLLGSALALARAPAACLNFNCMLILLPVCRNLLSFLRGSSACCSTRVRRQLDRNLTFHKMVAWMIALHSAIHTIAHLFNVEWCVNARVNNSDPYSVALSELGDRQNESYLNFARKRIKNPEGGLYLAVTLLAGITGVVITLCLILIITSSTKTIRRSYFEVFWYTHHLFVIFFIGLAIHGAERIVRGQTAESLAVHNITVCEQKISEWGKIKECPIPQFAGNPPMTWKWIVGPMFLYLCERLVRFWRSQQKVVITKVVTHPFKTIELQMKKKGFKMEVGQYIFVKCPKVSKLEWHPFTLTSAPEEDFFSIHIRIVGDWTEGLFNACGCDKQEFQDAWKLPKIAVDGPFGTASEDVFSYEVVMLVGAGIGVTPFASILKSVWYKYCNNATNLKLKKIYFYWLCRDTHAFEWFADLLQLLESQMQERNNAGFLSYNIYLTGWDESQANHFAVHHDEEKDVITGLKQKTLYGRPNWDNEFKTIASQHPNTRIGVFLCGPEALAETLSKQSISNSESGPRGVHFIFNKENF
Chain of NOX-2 (P13498 whole entry partner, species assumed): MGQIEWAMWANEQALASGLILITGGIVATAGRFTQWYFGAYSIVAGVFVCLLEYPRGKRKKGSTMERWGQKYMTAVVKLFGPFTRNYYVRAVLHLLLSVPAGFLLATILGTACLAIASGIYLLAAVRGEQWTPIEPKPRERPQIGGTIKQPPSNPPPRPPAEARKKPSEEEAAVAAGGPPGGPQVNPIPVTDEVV
Chain of NOX-4 (Q9NPH5 whole entry, species assumed): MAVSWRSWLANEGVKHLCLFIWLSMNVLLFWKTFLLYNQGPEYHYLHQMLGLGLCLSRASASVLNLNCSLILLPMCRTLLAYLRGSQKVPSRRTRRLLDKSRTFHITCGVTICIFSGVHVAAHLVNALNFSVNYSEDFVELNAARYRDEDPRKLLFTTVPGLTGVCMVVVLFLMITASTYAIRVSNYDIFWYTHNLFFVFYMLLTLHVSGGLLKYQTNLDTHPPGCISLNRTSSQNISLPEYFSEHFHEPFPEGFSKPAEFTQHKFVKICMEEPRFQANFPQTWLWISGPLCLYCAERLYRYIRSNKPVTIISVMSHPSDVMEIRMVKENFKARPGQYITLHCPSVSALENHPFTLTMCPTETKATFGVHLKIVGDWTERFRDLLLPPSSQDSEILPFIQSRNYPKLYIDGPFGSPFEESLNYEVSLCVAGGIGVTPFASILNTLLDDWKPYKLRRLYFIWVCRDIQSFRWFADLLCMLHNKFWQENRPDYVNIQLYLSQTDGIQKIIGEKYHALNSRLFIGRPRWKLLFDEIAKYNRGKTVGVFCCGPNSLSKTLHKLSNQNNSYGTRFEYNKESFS
Chain of NOX-4 (P13498 whole entry partner, species assumed): as the sequence (P13498 whole entry partner, species assumed) above

| SMILES | IC50 (NOX-2) | IC50 (NOX-4) | CC50 (Cytotoxicity CC50) | further results |
| --- | --- | --- | --- | --- |
| CN(C)CCCn1c(SCCc2ccccn2)nc2ccc(Cl)cc2c1=O [TG15-124-HCl, 6-chloro-3-(3-(dimethylamino)propyl)-2-((2-(pyridin-2-yl)ethyl)thio)quinazolin-4(3H)-one] | > 100 µM |  | > 10 µM |  |
| CN(C)CCCn1c(SCCc2c[nH]c3ccccc23)nc2ccc(F)cc2c1=O.Cl [TG15-132S, 2-((2-(1H-indol-3-yl)ethyl)thio)-3-(3-(dimethylamino)propyl)-6-fluoroquinazolin-4(3H)-one, hydrochloride] | 3.3 µM | 26 µM | > 20 µM | water solubility (in words) [1]: excellent water solubility; solubility [1]: 1200 µM; half-life [2]: 0.4 h; clearance rate ([3]; SD rats, single 20 mg/kg IP): 32.75 mL/min/kg; half-life ([3]; Sprague-Dawley, rat, 20 mg/kg IP, brain, read-out: half-life in the brain): > 5 h; half-life ([3]; Sprague-Dawley, rat, 20 mg/kg IP, plasma, read-out: half-life in plasma): > 5 h; Kp ([3]; male, Sprague-Dawley, brain and plasma, rat, 20 mg/kg IP, read-out: In vivo B/P Ratio (brain-to-plasma ratio)): > 10; In vivo B/P Ratio (brain-to-plasma ratio) ([3]; rat, 20 mg/kg IP, hydrochloride): >10; mRNA levels of NOX2 (gp91phox), p47phox, p67phox, IL-1beta and TNF (THP1 monocytic cells): suppressed |
| CN(C)CCCn1c(SCCc2ccccn2)nc2ccc(F)cc2c1=O [TG15-131-HCl, 3-(3-(dimethylamino)propyl)-6-fluoro-2-((2-(pyridin-2-yl)ethyl)thio)quinazolin-4(3H)-one] | > 50 µM |  |  |  |
| CN(C)CCCn1c(SCc2ccccn2)nc2ccc(F)cc2c1=O [LY5-10, 3-(3-(dimethylamino)propyl)-6-fluoro-2-((pyridin-2-ylmethyl)thio)quinazolin-4(3H)-one] | > 100 µM |  |  |  |
| CN(C)CCCn1c(SCCCc2ccccn2)nc2ccc(F)cc2c1=O [LY5-11, 3-(3-(dimethylamino)propyl)-6-fluoro-2-((3-(pyridin-2-yl)propyl)thio)quinazolin-4(3H)-one] | > 100 µM |  |  |  |

Further lines, with some results ahead:

| IC50 (NOX-2) | IC50 (NOX-4) | SMILES | CC50 (Cytotoxicity CC50) | further results |
| --- | --- | --- | --- | --- |
| 3.3 µM | 8.3 µM | O=C(CCCn1c(=S)[nH]c2ccc(F)cc2c1=O)N1CCN(c2ccccc2O)CC1 [LY4-123S, 6-fluoro-3-(4-(4-(2-hydroxyphenyl)piperazin-1-yl)-4-oxobutyl)-2-thioxo-2,3-dihydroquinazolin-4(1H)-one] |  |  |
| 1.65 µM | 32 µM | CN(C)CCCn1c(SCCc2c[nH]c3ccccc23)nc2ccc(Cl)cc2c1=O.Cl [TG15-139S, 2-((2-(1H-indol-3-yl)ethyl)thio)-6-chloro-3-(3-(dimethylamino)propyl)quinazolin-4(3H)-one. Hydrochloride] | > 10 µM | water solubility (in words) [1]: excellent water solubility; solubility [1]: 2350 µM; half-life [2]: 1.25 h; Kp at 8 h ([3]; male, Sprague-Dawley, rat, brain and plasma, SD rats, single 20 mg/kg IP, up to 8 h, read-out: brain-to-plasma ratio up to 8 h): > 10; Kp ([3]; male, Sprague-Dawley, rat, brain and plasma, SD rats, single 20 mg/kg IP, read-out: brain-to-plasma ratio): > 23 |
| 2.3 µM | > 50 µM | O=C(CCCn1c(=S)[nH]c2ccccc2c1=O)N1CCN(c2ccccc2O)CC1 [Compd. 43, 3-(4-(4-(2-hydroxyphenyl)piperazin-1-yl)-4-oxobutyl)-2-thioxo-2,3-dihydroquinazolin-4(1H)-one] | > 20 µM |  |
| 2.4 µM |  | CC(C)N1CCN(CCCn2c(SCCc3c[nH]c4ccccc34)nc3ccc(F)cc3c2=O)CC1 [TG17-57, 2-((2-(1H-indol-3-yl)ethyl)thio)-6-fluoro-3-(3-(4-isopropylpiperazin-1-yl)propyl)quinazolin-4(3H)-one] |  |  |
